Source: US20200375919A1, “BONE GRAFT MATERIAL WITH 4-HEXYLRESORCINOL THAT AFFECTS BONE FORMATION” (MANTIZ LOGITECH CO., LTD., priority 2019, published 2020)

How the values were obtained:
ALP, Runx2, Osx, Ocn = experiment: mRNA expression of osteoblast differentiation markers; format: cell-based; conditions: 0.0194% (=10^-4M) compared with 3% or control; FIGS. 4A to 4D
osteoblast-like cells [1] = experiment: Alizarin Red S staining (late osteoblast differentiation, calcium accumulation); format: cell-based, human; conditions: 0.0194% (=10^-4M) compared with 3% and control; FIG. 3
Protocol: Method of Measuring Bone Differentiation Degrees by Dyeing Calcium Accumulation of Bone-Differentiated Cells (Alizarin Red S Staining)
(§1) In vitro tests were performed by using osteoblast-like cells through a human primary cell culture. A cell survival environment was progressed by supplementing DMEM (Dulbecco Modified Eagle's Medium)-high glucose (PAA Laboratories, Pasching, Austria) and 20% fetal bovine serum (PAA, Canada) and comprising 1% penicillin/streptomycin (100×), and media were exchanged every other day. Resulting materials were confirmed on the seventh day of differentiation experiments.

osteoblast-like cells [2] = experiment: Alkaline phosphatase activity (early-stage osteoblastic differentiation); format: cell-based, human; conditions: 0.0194% (=10^-4M) compared with 3% and control; seventh day; FIG. 2
Protocol: Method of Measuring Cell Culture and Alkaline Phosphatase Activities
as §1, with “experiments by using alkaline phosphatase (Sigma, St. Louis, Mo., USA).” for “experiments.”

osteoclasts = experiment: Differentiation of osteoclasts (TRAP staining); format: cell-based, human; conditions: FIGS. 6A and 6B
Protocol: Method of Measuring Differentiation Abilities of Osteoclasts (TRAP Staining)
as §1, with “osteoclasts” for “osteoblast-like cells”, “bone marrow derived macrophages” for “primary cell”, “once a” for “every other”, “fifth” for “seventh”, “experiments through TRAP staining.” for “experiments.”

human primary cells = experiment: MTS measuring of cytotoxicity and cell viability; format: cell-based; conditions: FIG. 1
Description: MTS Measuring Method of Cytotoxicity and Cell Viability
Mitochondrial NADH-dehydrogenase forms formazan having a color by reducing a tetrazolium salt such as MTS. Therefore, as the number of cells which express dehydrogenase, i.e., living cells is proportional to formation of formazan, the living cells can be quantified.
After seeding human primary cells, adhering the seeded-human primary cells to a cell plate, and treating the seeded-human primary cells adhered to the cell plate with an MTS Cell Proliferation Assay Kit (ab197010, UK, abcam) every 24 hours and 48 hours, resulting materials were confirmed by using a wavelength of 490 nm.

ALP and Runx2 = experiment: Western blot protein level; format: cell-based; conditions: 0.0194% compared with 3% or control; FIG. 5

CCCCCCc1ccc(O)cc1O [4-hexylresorcinol]
mRNA expression level of ALP, Runx2, Osx, Ocn (ALP, Runx2, Osx, Ocn): larger expression level | calcification (Alizarin Red S staining) (osteoblast-like cells [1]): high calcification | ALP activity (osteoblast-like cells [2]): high ALP activity | effect on differentiation of osteoclasts, low versus high concentration (osteoclasts; 0.0194% compared with 3%): more excellent | differentiation of osteoclasts (osteoclasts; treating 4-hexylresorcinol, fifth day): inhibited | cell proliferation, low versus high concentration (human primary cells; 0.0194% compared with 3%): cell proliferation is more active | cell viabilities versus control (human primary cells; 4-hexylresorcinol concentrations of 3% and 0.0194% (=10^-4M)): higher than a control | ALP and Runx2 protein expression levels (western blot) (ALP and Runx2): higher
